Assay results as given in US9708370B2, “Azapeptides as CD36 binding compounds” (VALORISATION-RECHERCHE, LIMITED PARTNERSHIP, priority 2007, dated 2017).
Read-outs that look alike come from different tables or passages of the source. Starred links: 1 amine or outer side, 2 acyl side, 3 side chain; linkers in the order of their positions; H or OH if unused. Non-standard residues stand in square brackets, D forms with d. Residues, ends and D or L forms follow the SMILES beside them. *: point of attachment. azaTyr = O=C(N(Cc1ccc(O)cc1)N[*:1])[*:2]; azaLeu = CC(C)CN(N[*:1])C(=O)[*:2]; Hydrocinnamoyl = O=C(CCc1ccccc1)*

Assays:
CD36 = CD36 (Rattus norvegicus (Rat), UniProt Q07969); test: CD36 receptor covalent photolabelling binding assay, competition with [125I]Tyr-Bpa-Ala-hexarelin on rat cardiac membranes; conditions: for binding activity/affinity at CD36 in words: compared with parent peptide GHRP-6 or hexarelin
Description: The hearts from Sprague Dawley rats (300 g-325 g) from Charles River, used as a source of cardiac membranes, were prepared as follows: the heart was washed with ice-cold saline, and fatty and connective tissue was removed. The tissue was cut into small pieces with scissors and placed in a Sorvall centrifuge tube containing 5 ml/g of fresh tissue of Buffer A (10 mM NaHCO3, 5 mM NaN3, 10 μM Pefabloc, 0.1 μM Aprotinin, 1 μM Pepstatin A, 1 μM Leupeptin, pH 7.0). The suspension was homogenized with a Polytron at low speed, 3×15 sec. The homogenate was centrifuged at 8 700×g for 20 min and the supernatant was put on ice. The pellet was resuspended and homogenized with a Glass-teflon Potter by 5 strokes. The homogenate was centrifuged at 8 700×g for 10 min and this supernatant was combined with the first supernatant. The supernatant fluid was centrifuged at 35 000×g for 20 min, yielding a second pellet fraction that was suspended thoroughly in a glass homogenizer with a Teflon pestle in 20 ml/g of fresh tissue of Buffer B (20 mM Tris-maleate, 0.6M KCl, pH 6.8). The resulting suspension was centrifuged again at 35 000×g for 60 min. The third pellet fraction was resuspended thoroughly in a glass homogenizer with a Teflon pestle in 20 ml/g of fresh tissue of Buffer C (10 mM Tris/HCl buffer pH 7.4) followed with another centrifugation at 35 000×g for 60 min. The harvested precipitate was then suspended in a small volume (1-2 ml/g of fresh tissue) of 50 mM Tris/HCl buffer pH 7.4) containing 2 mM EGTA. The resulting membrane preparation was frozen at −80° C. Protein concentration was determined with bicinchoninic acid (BCA) method, using BSA as standard.
The iodination procedure was performed in the darkness. […] The reaction was started by adding 5 ul (3 nmol) of H2O2. The incubation was carried out at 22° C. for 5 min. The addition of H2O2 was repeated twice with 5 min incubation each time. The reaction was stopped with the addition of 1.4 ml of 0.1% TFA. The iodinated peptide was purified on a reverse-phase Vydac C18 column with a 60 min linear gradient (1 ml/min) from 20% to 50% acetonitrile (90%) in 0.1% TFA (10%).
Nonspecific binding was defined as binding not displaced by 50 μM corresponding peptide. All peptide containing solutions were diluted in Buffer B. Buffer A and B were degassed under vacuum, and used in capped tubes in order to minimize lipid peroxydation. Before the incubation period, all tubes were put under a low flow of nitrogen. All material was kept on ice and the binding assay was performed in darkness. After an incubation period of 60 min at 22° C. […] After centrifugation at 12 000×g for 15 minutes, the pellets were resuspended in 150 μl of sample buffer (62 mM Tris-HCl, pH 6.8, 2% SDS, 10% glycerol, 15% 2-mercapto-ethanol, and 0.05% bromophenol blue), and boiled for 5 min prior to being subjected to electrophoresis. Proteins (200 μg/100 μl) were separated on 7.5% SDS-PAGE (45 V overnight). The gels resulting from SDS/PAGE were fixed, colored in Coomassie Brilliant Blue R-250, dried, exposed to a storage phosphor intensifying screen (Amersham Biosciences), and analysed by using a Typhoon PhosphorImager (Amersham Biosciences) and ImageQuant 5.0 software to establish competition curves. Protein bands were quantified by densitometry. The covalent binding signal of 87 kDa was analyzed by densitometry using Typhoon Phospholmager™ (Typhoon, Amersham Biosciences) and ImageQuant 5.0® software to set competition curves.
Specific binding activities were defined as the ratio of the density of the protein band to that of a non-specific band. Results are expressed as the percentage of the density of the […] to that of the total binding band.

human GHS-R1a = human GHS-R1a (Homo sapiens (Human), UniProt Q92847); test: GHS-R1a binding assay, competition with 125I-ghrelin on membranes of LLC-PK1 cells expressing human GHS-R1a
[1] = tested on: vascular sprouting of aortic endothelium (aortic rings); test: Inhibition of microvascular sprouting from Matrigel-embedded aortic explants; assay type: cell-based, mice; conditions: preliminary data; compared with GHRP-6
From the text: FIG. 1 illustrates disruption of vascular sprouting of aortic endothelium by azapeptide compound DBG178. Sprouting aortic endothelium (Von Willebrand factor positive) expressing CD36 is shown in the upper row of FIG. 1a. Vascular sprouting of aortic rings from C57BL/6 and CD36 null mice in the presence of DBG 178 at 10^−7M is shown in the lower row of FIG. 1a. Histograms of microvascular sprouts areas (mean±s.e.m) from aortic explants of C57BL/6 and CD36 null mice exposed to DBG concentrations from 10^−8 to 10^−6 M p<0.01 compared with control (Ctl) is shown in FIG. 1b.
Aortas were excised from 10-week-old male C57/Bl6+/+ and CD36−/− mice of C57/Bl6 background. The fibroadipose tissue was removed and aortas were sectioned into 2-mm-long cross-sections. The +/+ and −/− rings were covered by 50 μl of Matrigel and cultured for 4 days in EGM-2 medium (Clonetics Corp.). Explants were then exposed to vehicle alone or in presence of an azapeptide prototype DBG178 at the indicated concentrations (10^−8 to 10^−6 M) from day 4 to day 6 of culture in EGM-2 medium. Pictures of each individual explant were taken at day 4 and day 6 and EC growth was measured as the surface covered at day 6 minus the surface covered at day 4 Data were subject to analysis of variance (ANOVA) followed by Dunnet's post test to test for differences among groups. Outgrowing cells were characterized by double-labelling with monoclonal vWF antibody (1:100, Dako) and polyclonal CD36 (1:100, Santa Cruz) after acetone fixation using their respective alexa coupled secondary antibodies.

[2] = Table 6, read-out: IC50 Binding CD36
[3] = Table 5, read-out: IC50 Binding GHS-R1a

Sequence of human GHS-R1a (Q92847 whole entry): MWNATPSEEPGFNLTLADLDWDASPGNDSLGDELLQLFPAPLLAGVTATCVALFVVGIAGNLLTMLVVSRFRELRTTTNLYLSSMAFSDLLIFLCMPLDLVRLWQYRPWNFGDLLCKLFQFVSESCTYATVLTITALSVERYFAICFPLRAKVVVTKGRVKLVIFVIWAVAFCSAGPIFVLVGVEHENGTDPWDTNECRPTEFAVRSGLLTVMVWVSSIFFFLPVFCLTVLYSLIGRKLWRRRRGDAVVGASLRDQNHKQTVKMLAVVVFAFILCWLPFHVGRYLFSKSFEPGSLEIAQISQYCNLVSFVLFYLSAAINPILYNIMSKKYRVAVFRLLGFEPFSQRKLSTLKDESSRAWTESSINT
Sequence of CD36 (Q07969 whole entry): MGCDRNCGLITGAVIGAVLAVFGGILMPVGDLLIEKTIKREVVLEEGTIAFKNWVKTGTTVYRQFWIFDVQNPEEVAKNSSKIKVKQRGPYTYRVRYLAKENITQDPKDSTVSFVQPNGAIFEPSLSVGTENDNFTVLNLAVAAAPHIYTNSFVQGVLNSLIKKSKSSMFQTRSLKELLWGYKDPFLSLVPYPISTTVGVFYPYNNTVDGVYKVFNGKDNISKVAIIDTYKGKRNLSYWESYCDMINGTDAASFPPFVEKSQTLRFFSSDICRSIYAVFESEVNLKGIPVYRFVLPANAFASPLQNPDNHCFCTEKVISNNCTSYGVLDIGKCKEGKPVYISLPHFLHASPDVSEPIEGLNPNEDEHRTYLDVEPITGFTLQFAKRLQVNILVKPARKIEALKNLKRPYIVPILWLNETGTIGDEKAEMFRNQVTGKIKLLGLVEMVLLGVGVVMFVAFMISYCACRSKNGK

| IC50 (CD36; Table 3, rat cardiac membranes, [125I]Tyr-Bpa-Ala-hexarelin as radioligand, read-out: IC50, binding affinity of aza peptide derivatives towards CD36) | IC50 (human GHS-R1a; Table 4, LLCPK-1 membranes overexpressing GHS-R1a, radioiodinated (1-28) rat ghrelin as tracer, read-out: EC50 (text: IC50 values from competition curves in GHS-R1a radioreceptor assay)) | IC50 (CD36; [2]) | IC50 (human GHS-R1a; [3]) | binding affinity for GHS-R1a receptor in words (human GHS-R1a; compared with GHRP-6) | Compound | binding activity/affinity at CD36 in words (CD36) | ex vivo inhibition of neovascularization in aortic rings [1] |
| --- | --- | --- | --- | --- | --- | --- | --- |
| 2.89 µM | 1.2 µM | – | – | – | CC(C)CN(NC(=O)[C@@H](Cc1c[nH]c2ccccc12)NC(=O)[C@@H](N)Cc1cnc[nH]1)C(=O)N[C@@H](Cc1c[nH]c2ccccc12)C(=O)N[C@H](Cc1ccccc1)C(=O)N[C@@H](CCCCN)C(N)=O [DBG201-A, His-D-Trp-azaLeu-Trp-D-Phe-Lys-NH2] (H-H[dW][azaLeu]W[dF]K-NH2) | retained significant activity similar to the parent peptide | most potent inhibitory effect |
| – | – | 11.8 µM | > 10 µM | – | C[C@H](NC(=O)[C@@H](Cc1c[nH]c2ccccc12)NC(=O)[C@@H](N)Cc1ccccc1)C(=O)NN(Cc1ccc(O)cc1)C(=O)N[C@H](Cc1ccccc1)C(=O)N[C@@H](CCCCN)C(N)=O [ZS554-F29, Phe-D-Trp-Ala-azaTyr-D-Phe-Lys-NH2] (H-F[dW]A[azaTyr][dF]K-NH2) | – | – |
| – | – | 2.95 µM | > 10 µM | decreased drastically | C[C@H](N)C(=O)N[C@H](Cc1c[nH]c2ccccc12)C(=O)N[C@@H](C)C(=O)NN(Cc1ccc(O)cc1)C(=O)N[C@H](Cc1ccccc1)C(=O)N[C@@H](CCCCN)C(N)=O [ZS555-F40, Ala-D-Trp-Ala-azaTyr-D-Phe-Lys-NH2] (H-A[dW]A[azaTyr][dF]K-NH2) | without major change | – |
| – | – | 32.5 µM | > 10 µM | – | C[C@H](NC(=O)[C@@H](Cc1c[nH]c2ccccc12)NC(=O)CCc1ccccc1)C(=O)NN(Cc1ccc(O)cc1)C(=O)N[C@H](Cc1ccccc1)C(=O)N[C@@H](CCCCN)C(N)=O [ZS556, Hydrocinnamyl-D-Trp-Ala-AzaTyr-D-Phe-Lys-NH2] (Hydrocinnamoyl-[dW]A[azaTyr][dF]K-NH2) | – | – |
